Source: ChEMBL document CHEMBL1148380, “Quantitative structure-activity relationships for gammadelta T cell activation by bisphosphonates” (J Med Chem, 2004)

What was measured:
Format in all cases: functional, cell-based
Details in all cases: Homo sapiens, T-cell
[1] = pIC50 value for stimulation of TNF-alpha release in gamma-delta T cells, using a constrained maximum TNF-alpha release of 2700 pg/mL
[2] = Inhibitory activity, for stimulation of TNF-alpha release in gamma-delta T cells, using a constrained maximum TNF-alpha release of 2700 pg/mL
[3] = pIC50 value for stimulation of TNF-alpha release in gamma-delta T cells, using individual observed maximum TNF-alpha release
[4] = Inhibitory activity, for stimulation of TNF-alpha release in gamma-delta T cells, using individual observed maximum TNF-alpha release

SMILES | IC50 [1] [µM] | IC50 [2] [µM] | IC50 [3] [µM] | IC50 [4] [µM]
CN(C)CCCC(P(=O)(O)O)P(=O)(O)O | 398 | 400 | – | –
O=P(O)(O)C(NCc1ccc(F)cc1)P(=O)(O)O | 63.1 | 63 | – | –
O=P(O)(O)C(Sc1ccccn1)P(=O)(O)O | 67.6 | 67 | – | –
CCC1CCCCN1C(P(=O)(O)O)P(=O)(O)O (stereo not given) | 1200 | 1200 | – | –
O=[N+]([O-])c1cccc(CC(O)(P(=O)(O)O)P(=O)(O)O)c1 | 110 | 110 | – | –
CC1CCN(C(P(=O)(O)O)P(=O)(O)O)CC1 | 23.4 | 24 | – | –
Cc1cc(Br)cnc1NC(P(=O)(O)O)P(=O)(O)O | 72.4 | 72 | – | –
CC(CCCCc1ccccc1)CCC(O)(P(=O)(O)O)P(=O)(O)O (stereo not given) | 16.2 | 16 | 10 | 9.9
CC1CCCC(C)N1C(P(=O)(O)O)P(=O)(O)O (stereo not given) | 1660 | 1650 | – | –
Cc1cccc(CC(O)(P(=O)(O)O)P(=O)(O)O)c1 | 8910 | 9020 | – | –
CC1CCCN(C(P(=O)(O)O)P(=O)(O)O)C1 (stereo not given) | 347 | 348 | – | –
O=P(O)(O)C(Nc1ccccn1)P(=O)(O)O | 15.5 | 16 | 7.41 | 7.4
O=P(O)(O)C(O)(CCc1cccnc1)P(=O)(O)O | 912 | 917 | 229 | 228
O=P(O)(O)C(CNc1ccncc1)P(=O)(O)O | 16.2 | 16 | 10 | 9.9
O=P(O)(O)C(CNc1ccccn1)P(=O)(O)O | 14.5 | 14 | 4.9 | 4.8
NCCCCC(O)(P(=O)(O)O)P(=O)(O)O | 214 | 213 | 102 | 102
CCCCCC(O)(P(=O)(O)O)P(=O)(O)O | 1620 | 1610 | 91.2 | 90
O=P(O)(O)C(Nc1cccnc1)P(=O)(O)O | 24 | 24 | 14.5 | 14
CN(CCc1ccccc1)CCC(O)(P(=O)(O)O)P(=O)(O)O | 22.9 | 23 | 19.5 | 19
O=P(O)(O)C(O)(Cc1c[nH]cn1)P(=O)(O)O | 12 | 12 | 7.76 | 7.8
O=P(O)(O)C(O)(CCNCCCOc1ccccc1)P(=O)(O)O | 141 | 143 | 97.7 | 98

SMILES | IC50 [1] [µM] | IC50 [2] [µM] | IC50 [3] [µM] | IC50 [4] [µM]
CC(C)(C)c1cccc(NC(P(=O)(O)O)P(=O)(O)O)c1 | 25100 | 25200 | – | –
O=P(O)(O)C(O)(Cn1ccnn1)P(=O)(O)O | 2090 | 2070 | – | –
CC1CCCCN1C(P(=O)(O)O)P(=O)(O)O (stereo not given) | 2750 | 2740 | – | –
O=P(O)(O)C(O)(C[n+]1cc[nH]c1)P(=O)(O)O | – | – | 5.25 | 5.2
CCN(C1CCCCC1)C(P(=O)(O)O)P(=O)(O)O | 102 | 103 | – | –
Nc1ccc(CC(O)(P(=O)(O)O)P(=O)(O)O)cc1 | 20000 | 19900 | 251 | 251
O=P(O)(O)C(O)(Cc1ccccn1)P(=O)(O)O | 5.62 | 5.6 | 5.75 | 5.7
O=P(O)(O)C(N1CCCCC1)P(=O)(O)O | 120 | 122 | 66.1 | 66
CN(CCCc1ccccc1)CCC(O)(P(=O)(O)O)P(=O)(O)O | 120 | 121 | 63.1 | 63
Cc1cccnc1NC(P(=O)(O)O)P(=O)(O)O | 4.9 | 4.9 | 4.37 | 4.3
CCCCCCC(O)(P(=O)(O)O)P(=O)(O)O | 2090 | 2110 | 214 | 213
CC(N)CC(O)(P(=O)(O)O)P(=O)(O)O (stereo not given) | 110 | 110 | 63.1 | 63
Cc1ccnc(NC(P(=O)(O)O)P(=O)(O)O)c1 | 14.5 | 14 | 12.6 | 13
O=P(O)(O)C(O)(Cc1ccncc1)P(=O)(O)O | 20.9 | 21 | 21.4 | 22
Cc1cccc(NC(P(=O)(O)O)P(=O)(O)O)n1 | 28.2 | 28 | 12 | 12
CCC(C)CNC(P(=O)(O)O)P(=O)(O)O (stereo not given) | 19.5 | 19 | 8.91 | 9
O=P(O)(O)C(O)(Cc1ccccc1)P(=O)(O)O | 2820 | 2820 | 398 | 395
O=P(O)(O)C(Cc1cccnc1)P(=O)(O)O | 10.5 | 10 | – | –
CCCCNC(P(=O)(O)O)P(=O)(O)O [(BUTYLAMINO)METHYLENEDIPHOSPHONIC ACID] | 12.9 | 13 | 10.2 | 10
O=P(O)(O)C(NC1CCC1)P(=O)(O)O [(CYCLOBUTYLAMINO)METHYLENEDIPHOSPHONIC ACID] | 126 | 127 | 56.2 | 56
O=P(O)(O)C(NC1CCCCC1)P(=O)(O)O [(CYCLOHEXYLAMINO)METHYLENEDIPHOSPHONIC ACID] | 46.8 | 47 | 39.8 | 40

SMILES | IC50 [1] [µM] | IC50 [2] [µM] | IC50 [3] [µM] | IC50 [4] [µM]
O=P(O)(O)C(NC1CCCCCCC1)P(=O)(O)O [(CYCLOOCTYLAMINO)METHYLENEDIPHOSPHONIC ACID] | 110 | 110 | 43.7 | 44
O=P(O)(O)C(NC1CCCC1)P(=O)(O)O [(CYCLOPENTYLAMINO)METHYLENEDIPHOSPHONIC ACID] | 55 | 55 | 25.1 | 25
CCN(CC)C(P(=O)(O)O)P(=O)(O)O [(DIETHYLAMINO)METHYLENEDIPHOSPHONIC ACID] | 2880 | 2910 | 132 | 132
CCCN(CCC)C(P(=O)(O)O)P(=O)(O)O [(DIPROPYLAMINO)METHYLENEDIPHOSPHONIC ACID] | 83.2 | 83 | 40.7 | 41
CC(C)CCNC(P(=O)(O)O)P(=O)(O)O [(ISOPENTYLAMINO)METHYLENEDIPHOSPHONIC ACID] | 46.8 | 47 | 39.8 | 40
CCCCCCCCCNC(P(=O)(O)O)P(=O)(O)O [(NONYLAMINO)METHYLENEDIPHOSPHONIC ACID] | 170 | 169 | 66.1 | 66
CCCCCNC(P(=O)(O)O)P(=O)(O)O [(PENTYLAMINO)METHYLENEDIPHOSPHONIC ACID] | 40.7 | 41 | 7.76 | 7.8
CCCNC(P(=O)(O)O)P(=O)(O)O [(PROPYLAMINO)METHYLENEDIPHOSPHONIC ACID] | 34.7 | 35 | 18.2 | 18
NCCCC(O)(P(=O)(O)O)P(=O)(O)O [ALENDRONIC ACID] | 52.5 | 52 | 53.7 | 53
CCCCCN(C)CCC(O)(P(=O)(O)O)P(=O)(O)O [IBANDRONIC ACID] | 30.9 | 31 | 31.6 | 31
O=P(O)(O)C(NC1CCCCCC1)P(=O)(O)O [INCADRONIC ACID] | 14.8 | 15 | 11.5 | 11
O=P(O)(O)C(O)(Cc1cnc2ccccn12)P(=O)(O)O [MINODRONIC ACID] | 7.94 | 8 | 4.07 | 4.1
O=P(O)(O)C(N1CCCCCCC1)P(=O)(O)O [N-(HEPTAMETHYLENEIMINO)METHYLENEBISPHOSPHONIC ACID] | 67.6 | 68 | – | –
O=P(O)(O)C(N1CCCCCC1)P(=O)(O)O [N-(HEXAMETHYLENEIMINO)METHYLENEBISPHOSPHONIC ACID] | 12.9 | 13 | 11.2 | 11
NCCCCCC(O)(P(=O)(O)O)P(=O)(O)O [NERIDRONIC ACID] | 501 | 503 | 195 | 1.96
CN(C)CCC(O)(P(=O)(O)O)P(=O)(O)O [OLPADRONIC ACID] | 112 | 112 | 46.8 | 46
NCCC(O)(P(=O)(O)O)P(=O)(O)O [PAMIDRONIC ACID] | 933 | 941 | 61.7 | 62
O=P(O)(O)C(O)(Cc1cccnc1)P(=O)(O)O [RISEDRONIC ACID] | 6.17 | 6.2 | 6.92 | 6.9
O=P(O)(O)C(N1CCSCC1)P(=O)(O)O [THIOMORPHOLINOMETHYLENEDIPHOSPHONIC ACID] | 603 | 597 | 191 | 190
